Experimental data taken from ChEMBL document CHEMBL4420071, “Method for treating skin with retinoids and retinoid boosters” (2013).
Each block holds one molecule with its values, some of them ahead of it.

Experiments:
Homo sapiens [1] = organism: Homo sapiens; test: Inhibition of transglutaminase in human keratinocytes assessed as mean transglutaminase activity level at 3.73 10^-4M in presence of 10 uM retinal relative to retinal alone; format: cell-based; parameters: scale not given: the % may be the effect or the level left
Homo sapiens [2] = organism: Homo sapiens; test: Inhibition of transglutaminase in human keratinocytes assessed as mean transglutaminase activity level at 1.23 10^-5M in presence of 10 uM retinal relative to retinal alone; format: cell-based; parameters: scale not given: the % may be the effect or the level left
Homo sapiens [3] = organism: Homo sapiens; test: Inhibition of transglutaminase in human keratinocytes assessed as mean transglutaminase activity level at 4.1 10^-5M in presence of 10 uM retinal relative to retinal alone; format: cell-based; parameters: scale not given: the % may be the effect or the level left
Homo sapiens [4] = organism: Homo sapiens; test: Inhibition of transglutaminase in human keratinocytes assessed as mean transglutaminase activity level at 8.2 10^-6M in presence of 10 uM retinal relative to retinal alone; format: cell-based; parameters: scale not given: the % may be the effect or the level left
Homo sapiens [5] = organism: Homo sapiens; test: Inhibition of transglutaminase in human keratinocytes assessed as mean transglutaminase activity level at 1.65 10^-7M in presence of 10 uM retinal relative to retinal alone; format: cell-based; parameters: scale not given: the % may be the effect or the level left
Homo sapiens [6] = organism: Homo sapiens; test: Inhibition of transglutaminase in human keratinocytes assessed as mean transglutaminase activity level at 3.29 10^-7M in presence of 10 uM retinal relative to retinal alone; format: cell-based; parameters: scale not given: the % may be the effect or the level left
Homo sapiens [7] = organism: Homo sapiens; test: Inhibition of transglutaminase in human keratinocytes assessed as mean transglutaminase activity level at 1.4 10^-2M in presence of 10 uM retinal relative to retinal alone; format: cell-based; parameters: scale not given: the % may be the effect or the level left
Homo sapiens [8] = organism: Homo sapiens; test: Inhibition of transglutaminase in human keratinocytes assessed as mean transglutaminase activity level at 4.8 10^-3M in presence of 10 uM retinal relative to retinal alone; format: cell-based; parameters: scale not given: the % may be the effect or the level left
Homo sapiens [9] = organism: Homo sapiens; test: Inhibition of transglutaminase in human keratinocytes assessed as mean transglutaminase activity level at 1 10^-3M in presence of 10 uM retinal relative to retinal alone; format: cell-based; parameters: scale not given: the % may be the effect or the level left
Homo sapiens [10] = organism: Homo sapiens
[11] = biological target: T1, Cellular retinoic acid-binding protein 2 (Homo sapiens) (UniProt P29373); test: Inhibition of radioactive all-trans retinoic acid binding to CRABP2 (unknown origin) expressed in Escherichia coli BLR(DE3)pLys incubated for 1 hr by scintillation counting assay; conditions: concentration not given here
T1 sequence (whole entry): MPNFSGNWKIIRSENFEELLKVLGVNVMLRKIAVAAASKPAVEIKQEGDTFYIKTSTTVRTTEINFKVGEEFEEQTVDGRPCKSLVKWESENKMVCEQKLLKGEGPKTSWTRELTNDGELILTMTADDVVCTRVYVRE

Homo sapiens [12] = organism: Homo sapiens; test: Inhibition of transglutaminase in human keratinocytes assessed as mean transglutaminase activity level at 5.0 10^-8M in presence of 10 uM retinal relative to retinal alone; format: cell-based; parameters: scale not given: the % may be the effect or the level left
Homo sapiens [13] = organism: Homo sapiens; test: Inhibition of transglutaminase in human keratinocytes assessed as mean transglutaminase activity level at 1.1 10^-8M in presence of 10 uM retinal relative to retinal alone; format: cell-based; parameters: scale not given: the % may be the effect or the level left
Homo sapiens [14] = organism: Homo sapiens; test: Inhibition of transglutaminase in human keratinocytes assessed as mean transglutaminase activity level at 2 10^-8M in presence of 10 uM retinal relative to retinal alone; format: cell-based; parameters: scale not given: the % may be the effect or the level left
Homo sapiens [15] = organism: Homo sapiens; test: Inhibition of transglutaminase in human keratinocytes assessed as mean transglutaminase activity level at 4.3 10^-9M in presence of 10 uM retinal relative to retinal alone; format: cell-based; parameters: scale not given: the % may be the effect or the level left
Homo sapiens [16] = organism: Homo sapiens; test: Inhibition of transglutaminase in human keratinocytes assessed as mean transglutaminase activity level at 9.1 10^-4M in presence of 10 uM retinal relative to retinal alone; format: cell-based; parameters: scale not given: the % may be the effect or the level left
Homo sapiens [17] = organism: Homo sapiens; test: Inhibition of transglutaminase in human keratinocytes assessed as mean transglutaminase activity level at 1.23 10^-4M in presence of 10 uM retinal relative to retinal alone; format: cell-based; parameters: scale not given: the % may be the effect or the level left
Homo sapiens [18] = organism: Homo sapiens; test: Inhibition of transglutaminase in human keratinocytes assessed as mean transglutaminase activity level at 3.1 10^-5M in presence of 10 uM retinal relative to retinal alone; format: cell-based; parameters: scale not given: the % may be the effect or the level left
Homo sapiens [19] = organism: Homo sapiens; test: Inhibition of transglutaminase in human keratinocytes assessed as mean transglutaminase activity level at 1.2 10^-5M in presence of 10 uM retinal relative to retinal alone; format: cell-based; parameters: scale not given: the % may be the effect or the level left
Homo sapiens [20] = organism: Homo sapiens; test: Inhibition of transglutaminase in human keratinocytes assessed as mean transglutaminase activity level at 3.65 10^-6M in presence of 10 uM retinal relative to retinal alone; format: cell-based; parameters: scale not given: the % may be the effect or the level left
Homo sapiens [21] = organism: Homo sapiens; test: Inhibition of transglutaminase in human keratinocytes assessed as mean transglutaminase activity level at 1.29 10^-6M in presence of 10 uM retinal relative to retinal alone; format: cell-based; parameters: scale not given: the % may be the effect or the level left
Homo sapiens [22] = organism: Homo sapiens; test: Inhibition of transglutaminase in human keratinocytes assessed as mean transglutaminase activity level at 2 10^-7M in presence of 10 uM retinal relative to retinal alone; format: cell-based; parameters: scale not given: the % may be the effect or the level left
Homo sapiens [23] = organism: Homo sapiens; test: Inhibition of transglutaminase in human keratinocytes assessed as mean transglutaminase activity level at 5.1 10^-8M in presence of 10 uM retinal relative to retinal alone; format: cell-based; parameters: scale not given: the % may be the effect or the level left
Homo sapiens [24] = organism: Homo sapiens; test: Inhibition of transglutaminase in human keratinocytes assessed as mean transglutaminase activity level at 1 10^-8M in presence of 10 uM retinal relative to retinal alone; format: cell-based; parameters: scale not given: the % may be the effect or the level left

Activity (Homo sapiens [1]): 101%
Activity (Homo sapiens [2]): 82%
Activity (Homo sapiens [3]): 98%
Activity (Homo sapiens [4]): 109%
Activity (Homo sapiens [5]): 80%
Activity (Homo sapiens [6]): 93%
Activity (Homo sapiens [7]): 21.5%
Activity (Homo sapiens [8]): 93.8%
Activity (Homo sapiens [9]): 124%
Compound: COc1cc(C=O)ccc1O
IC20 (Homo sapiens [10]): 8.47 ×10⁻³ M

inhibition [11]: > 50%
Activity (Homo sapiens [2]): -5.2%
Activity (Homo sapiens [3]): 32.4%
Activity (Homo sapiens [4]): 97.6%
Activity (Homo sapiens [5]): 90.2%
Activity (Homo sapiens [6]): 82%
Activity (Homo sapiens [12]): 81%
Activity (Homo sapiens [13]): 98%
Activity (Homo sapiens [14]): 118%
Activity (Homo sapiens [15]): 71%
Compound: CCCCCCC(O)CCCCCCCCCCC(=O)O (stereo unspecified)
IC20 (Homo sapiens [10]): 1.45 ×10⁻⁵ M

Activity (Homo sapiens [1]): 69.3%
Activity (Homo sapiens [16]): 46.6%
Activity (Homo sapiens [17]): 51%
Activity (Homo sapiens [18]): 96%
Activity (Homo sapiens [19]): 105%
Activity (Homo sapiens [20]): 63%
Activity (Homo sapiens [21]): 80%
Activity (Homo sapiens [22]): 142%
Activity (Homo sapiens [23]): 64%
Activity (Homo sapiens [24]): 58%
Compound: CCCCCCCCCCCCCCCCC(O)C(=O)O (stereo unspecified)
